Experimental data reported in ChEMBL document CHEMBL1201862, “PubChem BioAssay data set” (2004).
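Cells were grown in 96-well plates and exposed to each compound for 48 hours at five concentrations; endpoints were interpolated linearly between bracketing concentrations, or set to the highest concentration if not reached. Here, GI50 denotes the concentration required for 50% inhibition of growth.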 The source made the active and inactive calls. Rule as the data show it: active = GI50 up to about 1.1 µM and inactive = higher. Where a SMILES comes first, the peptide text is derived from it. [ ]: non-standard residue; d: D form. The star is where a group is joined. Phe(4-NO2) = N[CH](Cc1ccc([N+](=O)[O-])cc1)C(=O)O; Boc = CC(C)(C)OC(=O)*; OtBu = CC(C)(C)O*

What was measured:
Assay in all cases: NCI-60 cell line screen, 48 h
[1] = test system: A549
[2] = test system: HCT-116
[3] = test system: HOP-62
[4] = test system: HOP-92
[5] = test system: IGROV-1
[6] = test system: K562
[7] = test system: MCF7
[8] = test system: MDA-MB-435
[9] = test system: MDA-N
[10] = test system: MOLT-4
[11] = test system: Malme-3M
[12] = test system: NCI-H460
[13] = test system: OVCAR-5
[14] = test system: RXF 393
[15] = test system: SF-539
[16] = test system: SK-MEL-2
[17] = test system: SW-620
[18] = test system: TK-10
[19] = test system: U-251
[20] = test system: UACC-257

SMILES | GI50 [1] | GI50 [2] | GI50 [3] | GI50 [4] | GI50 [5] | GI50 [6] | GI50 [7] | GI50 [8] | GI50 [9] | GI50 [10] | GI50 [11] | GI50 [12] | GI50 [13] | GI50 [14] | GI50 [15] | GI50 [16] | GI50 [17] | GI50 [18] | GI50 [19] | GI50 [20]
C=C(C)C1CC/C(C)=C/CCC2(C)OC2CC/C(CO)=C\C1O (stereo not given) | > 100 µM (inactive) | > 100 µM (inactive) | > 100 µM (inactive) | 7.28 µM (inactive) | 68.1 µM (inactive) | 42 µM (inactive) | 91.4 µM (inactive) | 60 µM (inactive) | > 100 µM (inactive) | 43 µM (inactive) | 52.1 µM (inactive) | 42.7 µM (inactive) | > 100 µM (inactive) | > 100 µM (inactive) | 67 µM (inactive) | > 100 µM (inactive) | > 100 µM (inactive) | > 100 µM (inactive) | 98.4 µM (inactive) | > 100 µM (inactive)
COc1ccc(/C=N/N=C(\N)NO)c(O)c1 | > 10 µM (inactive) | 3.53 µM (inactive) | > 10 µM (inactive) | > 10 µM (inactive) | 8.77 µM (inactive) | 4.41 µM (inactive) | 4.34 µM (inactive) | 2.09 µM (inactive) | > 10 µM (inactive) | > 10 µM (inactive) | 9.75 µM (inactive) | 4.91 µM (inactive) | > 10 µM (inactive) | > 10 µM (inactive) | > 10 µM (inactive) | > 10 µM (inactive) | > 10 µM (inactive) | > 10 µM (inactive) | > 10 µM (inactive) | 6.52 µM (inactive)
COC(=O)C(Cc1ccc([N+](=O)[O-])cc1)NC(=O)C(CC(=O)OC(C)(C)C)NC(=O)OC(C)(C)C (stereo not given) (Boc-Asp(OtBu)-[Phe(4-NO2)]-OMe; configuration not given here) | > 100 µM (inactive) | > 100 µM (inactive) | > 100 µM (inactive) | > 100 µM (inactive) | > 100 µM (inactive) | > 100 µM (inactive) | > 100 µM (inactive) | > 100 µM (inactive) | > 100 µM (inactive) | 66.8 µM (inactive) | > 100 µM (inactive) | > 100 µM (inactive) | > 100 µM (inactive) | > 100 µM (inactive) | > 100 µM (inactive) | > 100 µM (inactive) | > 100 µM (inactive) | > 100 µM (inactive) | > 100 µM (inactive) | > 100 µM (inactive)
CCCCCCCCCCCCCC(=O)O[C@H]1CC[C@H](NC(=O)[C@H](OC)[C@H](O)[C@@H](O)[C@H](O)/C=C/C(C)C)C(=O)NC1 [BENGAMIDE A] | 0.00512 µM (active) | 0.00512 µM (active) | 0.235 µM (active) | 0.0204 µM (active) | 0.00708 µM (active) | 0.00512 µM (active) | 0.0392 µM (active) | 0.204 µM (active) | 0.0598 µM (active) | 0.00512 µM (active) | 0.0148 µM (active) | 0.00512 µM (active) | 38.1 µM (inactive) | 0.175 µM (active) | 0.0197 µM (active) | 0.251 µM (active) | 0.00512 µM (active) | 0.0726 µM (active) | 0.00705 µM (active) | 0.0205 µM (active)
